Experimental data as given in the kinase profiling compilation of Christmann-Franck et al. (2016).

Experiments:
Test in all cases: radiometric filter-binding kinase assay
[1] = system: AKT2 (human), P31751 [S474D]
BTK (human) = BTK (human) (UniProt Q06187)
CDK2 CCNA2 (human) = CDK2 CCNA2 (human) (UniProt P20248+P24941)
CHEK2 (human) = CHEK2 (human) (UniProt O96017)
CSK (human) = CSK (human) (UniProt P41240)
CSNK1D (human) = CSNK1D (human) (UniProt P48730)
EPHA4 (human) = EPHA4 (human) (UniProt P54764)
EPHB1 (human) = EPHB1 (human) (UniProt P54762)
EPHB4 (human) = EPHB4 (human) (UniProt P54760)
FLT1 (human) = FLT1 (human) (UniProt P17948)
IKBKB (human) = IKBKB (human) (UniProt O14920)
IKBKE (human) = IKBKE (human) (UniProt Q14164)
INSRR (human) = INSRR (human) (UniProt P14616)
MAP2K1 (human) = MAP2K1 (human) (UniProt Q02750)
MAPK1 (human) = MAPK1 (human) (UniProt P28482)
MAPK14 (human) = MAPK14 (human) (UniProt Q16539)
MAPK15 (human) = MAPK15 (human) (UniProt Q8TD08)
MAPK3 (human) = MAPK3 (human) (UniProt P27361)
MAPKAPK3 (human) = MAPKAPK3 (human) (UniProt Q16644)
MKNK2 (human) = MKNK2 (human) (UniProt Q9HBH9)
NEK2 (human) = NEK2 (human) (UniProt P51955)
NEK6 (human) = NEK6 (human) (UniProt Q9HC98)
PAK7 (human) = PAK7 (human) (UniProt Q9P286)
PIM2 (human) = PIM2 (human) (UniProt Q9P1W9)
PLK1 (human) = PLK1 (human) (UniProt P53350)
PRKAA1 or PRKAA2 (rat) = settings: accession and sequence are those of the human protein
PRKACA (human) = PRKACA (human) (UniProt P17612)
RIPK2 (human) = RIPK2 (human) (UniProt O43353)
RPS6KA1 KD1 KD2 (human) = RPS6KA1 KD1 KD2 (human) (UniProt Q15418)
RPS6KA3 KD1 KD2 (human) = RPS6KA3 KD1 KD2 (human) (UniProt P51812)
RPS6KA5 KD1 KD2 (human) = RPS6KA5 KD1 KD2 (human) (UniProt O75582)
[2] = system: RPS6KB1 (human), P23443 [T412E]
SRC (human) = SRC (human) (UniProt P12931)
SYK (human) = SYK (human) (UniProt P43405)
TTK (human) = TTK (human) (UniProt P33981)

CSNK1D (human), sequence (P48730 whole entry, looked up): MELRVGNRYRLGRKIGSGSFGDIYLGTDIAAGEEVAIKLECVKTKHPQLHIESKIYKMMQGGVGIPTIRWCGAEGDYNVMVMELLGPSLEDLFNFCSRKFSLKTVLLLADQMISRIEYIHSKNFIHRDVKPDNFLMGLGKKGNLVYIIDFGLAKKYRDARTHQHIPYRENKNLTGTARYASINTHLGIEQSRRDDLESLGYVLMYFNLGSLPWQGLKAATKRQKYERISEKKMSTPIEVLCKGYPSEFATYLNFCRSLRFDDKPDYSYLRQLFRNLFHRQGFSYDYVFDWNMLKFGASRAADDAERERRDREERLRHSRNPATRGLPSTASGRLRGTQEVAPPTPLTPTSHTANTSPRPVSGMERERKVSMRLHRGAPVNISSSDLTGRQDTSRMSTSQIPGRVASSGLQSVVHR
PAK7 (human), sequence (Q9P286 whole entry, looked up): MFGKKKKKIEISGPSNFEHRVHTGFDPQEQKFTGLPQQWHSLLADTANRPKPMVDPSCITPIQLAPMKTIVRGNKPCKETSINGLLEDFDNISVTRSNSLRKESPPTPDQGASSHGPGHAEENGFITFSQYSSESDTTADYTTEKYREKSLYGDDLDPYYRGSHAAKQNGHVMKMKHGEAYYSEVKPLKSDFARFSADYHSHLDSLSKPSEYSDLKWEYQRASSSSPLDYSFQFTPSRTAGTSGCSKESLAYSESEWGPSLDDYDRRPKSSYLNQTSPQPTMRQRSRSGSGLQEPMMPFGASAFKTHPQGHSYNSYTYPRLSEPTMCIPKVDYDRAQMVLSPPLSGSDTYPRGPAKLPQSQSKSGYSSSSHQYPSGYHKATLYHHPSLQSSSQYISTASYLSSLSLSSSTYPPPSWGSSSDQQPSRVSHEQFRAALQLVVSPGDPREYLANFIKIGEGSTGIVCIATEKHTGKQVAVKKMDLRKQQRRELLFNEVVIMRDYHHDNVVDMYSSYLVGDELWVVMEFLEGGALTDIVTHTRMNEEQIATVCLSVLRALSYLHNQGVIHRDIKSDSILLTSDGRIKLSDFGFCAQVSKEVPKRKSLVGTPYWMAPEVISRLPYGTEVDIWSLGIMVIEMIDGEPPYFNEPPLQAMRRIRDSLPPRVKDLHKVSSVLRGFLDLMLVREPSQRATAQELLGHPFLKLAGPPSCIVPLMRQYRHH
MKNK2 (human), sequence (Q9HBH9 whole entry, looked up): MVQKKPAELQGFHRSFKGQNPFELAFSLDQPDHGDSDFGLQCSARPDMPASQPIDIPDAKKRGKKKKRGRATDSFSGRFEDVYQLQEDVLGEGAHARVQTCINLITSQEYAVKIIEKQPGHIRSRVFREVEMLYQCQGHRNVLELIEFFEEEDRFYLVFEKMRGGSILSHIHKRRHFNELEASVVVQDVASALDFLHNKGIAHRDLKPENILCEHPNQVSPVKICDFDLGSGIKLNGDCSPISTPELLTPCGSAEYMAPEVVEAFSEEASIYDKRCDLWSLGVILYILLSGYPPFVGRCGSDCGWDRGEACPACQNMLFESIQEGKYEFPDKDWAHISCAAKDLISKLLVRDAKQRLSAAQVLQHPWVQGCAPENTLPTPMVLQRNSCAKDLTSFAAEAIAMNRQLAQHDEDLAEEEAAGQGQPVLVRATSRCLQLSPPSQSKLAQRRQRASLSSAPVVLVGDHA
FLT1 (human), sequence (P17948 whole entry, looked up): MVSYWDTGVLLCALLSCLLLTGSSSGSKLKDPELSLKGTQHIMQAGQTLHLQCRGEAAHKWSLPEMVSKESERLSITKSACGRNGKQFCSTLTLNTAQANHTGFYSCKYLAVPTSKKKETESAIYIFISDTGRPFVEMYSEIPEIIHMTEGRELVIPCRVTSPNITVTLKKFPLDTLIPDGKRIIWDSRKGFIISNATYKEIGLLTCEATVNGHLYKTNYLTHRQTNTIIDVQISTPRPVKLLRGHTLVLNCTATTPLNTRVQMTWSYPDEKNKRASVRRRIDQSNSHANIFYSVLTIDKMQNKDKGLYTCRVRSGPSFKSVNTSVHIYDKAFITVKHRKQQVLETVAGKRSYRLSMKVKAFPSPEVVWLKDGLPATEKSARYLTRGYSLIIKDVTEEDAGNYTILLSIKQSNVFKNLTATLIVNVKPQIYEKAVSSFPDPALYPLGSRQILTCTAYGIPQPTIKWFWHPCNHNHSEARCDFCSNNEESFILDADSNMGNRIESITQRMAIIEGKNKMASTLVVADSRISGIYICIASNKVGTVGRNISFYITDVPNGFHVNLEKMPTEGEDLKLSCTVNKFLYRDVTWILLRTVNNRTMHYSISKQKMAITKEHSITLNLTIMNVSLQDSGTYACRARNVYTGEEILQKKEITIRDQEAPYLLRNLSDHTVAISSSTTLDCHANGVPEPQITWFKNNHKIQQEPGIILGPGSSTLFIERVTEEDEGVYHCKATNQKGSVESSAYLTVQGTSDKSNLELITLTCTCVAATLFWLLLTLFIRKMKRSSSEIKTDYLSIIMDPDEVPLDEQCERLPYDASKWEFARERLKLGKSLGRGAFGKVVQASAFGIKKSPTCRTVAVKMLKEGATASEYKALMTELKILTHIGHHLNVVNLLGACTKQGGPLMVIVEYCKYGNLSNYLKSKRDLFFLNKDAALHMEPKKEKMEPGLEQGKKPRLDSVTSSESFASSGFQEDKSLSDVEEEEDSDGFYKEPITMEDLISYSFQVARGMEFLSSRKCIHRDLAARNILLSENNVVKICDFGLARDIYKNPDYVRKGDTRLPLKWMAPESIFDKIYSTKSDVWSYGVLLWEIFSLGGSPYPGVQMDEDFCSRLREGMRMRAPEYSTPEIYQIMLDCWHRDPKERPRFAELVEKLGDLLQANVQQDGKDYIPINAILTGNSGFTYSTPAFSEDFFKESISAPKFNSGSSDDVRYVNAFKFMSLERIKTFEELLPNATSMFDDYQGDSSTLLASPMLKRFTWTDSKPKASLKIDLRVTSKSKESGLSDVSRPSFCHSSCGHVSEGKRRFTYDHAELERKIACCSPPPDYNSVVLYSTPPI
EPHB1 (human), sequence (P54762 whole entry, looked up): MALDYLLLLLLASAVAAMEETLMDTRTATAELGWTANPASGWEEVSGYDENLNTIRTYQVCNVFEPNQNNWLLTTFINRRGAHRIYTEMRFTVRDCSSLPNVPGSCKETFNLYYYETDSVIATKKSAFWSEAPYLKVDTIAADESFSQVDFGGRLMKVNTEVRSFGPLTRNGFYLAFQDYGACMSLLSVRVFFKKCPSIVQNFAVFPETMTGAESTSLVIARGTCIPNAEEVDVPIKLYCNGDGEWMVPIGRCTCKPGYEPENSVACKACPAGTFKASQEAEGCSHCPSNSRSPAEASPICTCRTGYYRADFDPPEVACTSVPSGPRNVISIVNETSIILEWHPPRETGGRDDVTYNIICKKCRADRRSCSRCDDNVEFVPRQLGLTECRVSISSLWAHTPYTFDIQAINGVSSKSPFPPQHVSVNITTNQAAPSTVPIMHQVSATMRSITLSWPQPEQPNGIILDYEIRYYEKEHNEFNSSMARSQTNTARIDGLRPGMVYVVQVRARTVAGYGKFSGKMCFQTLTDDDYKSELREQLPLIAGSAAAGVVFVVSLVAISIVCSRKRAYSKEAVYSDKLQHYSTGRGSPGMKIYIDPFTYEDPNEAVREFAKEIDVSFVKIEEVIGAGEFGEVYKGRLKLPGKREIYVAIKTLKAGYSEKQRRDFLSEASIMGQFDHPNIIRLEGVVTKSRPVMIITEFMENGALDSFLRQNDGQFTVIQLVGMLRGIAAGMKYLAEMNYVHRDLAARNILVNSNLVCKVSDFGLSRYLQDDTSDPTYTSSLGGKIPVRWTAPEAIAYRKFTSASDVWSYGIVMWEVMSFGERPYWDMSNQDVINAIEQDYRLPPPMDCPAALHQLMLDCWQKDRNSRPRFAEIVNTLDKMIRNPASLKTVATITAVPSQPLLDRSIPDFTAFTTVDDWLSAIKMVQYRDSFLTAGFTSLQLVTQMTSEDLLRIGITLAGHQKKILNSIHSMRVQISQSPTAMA
PLK1 (human), sequence (P53350 whole entry, looked up): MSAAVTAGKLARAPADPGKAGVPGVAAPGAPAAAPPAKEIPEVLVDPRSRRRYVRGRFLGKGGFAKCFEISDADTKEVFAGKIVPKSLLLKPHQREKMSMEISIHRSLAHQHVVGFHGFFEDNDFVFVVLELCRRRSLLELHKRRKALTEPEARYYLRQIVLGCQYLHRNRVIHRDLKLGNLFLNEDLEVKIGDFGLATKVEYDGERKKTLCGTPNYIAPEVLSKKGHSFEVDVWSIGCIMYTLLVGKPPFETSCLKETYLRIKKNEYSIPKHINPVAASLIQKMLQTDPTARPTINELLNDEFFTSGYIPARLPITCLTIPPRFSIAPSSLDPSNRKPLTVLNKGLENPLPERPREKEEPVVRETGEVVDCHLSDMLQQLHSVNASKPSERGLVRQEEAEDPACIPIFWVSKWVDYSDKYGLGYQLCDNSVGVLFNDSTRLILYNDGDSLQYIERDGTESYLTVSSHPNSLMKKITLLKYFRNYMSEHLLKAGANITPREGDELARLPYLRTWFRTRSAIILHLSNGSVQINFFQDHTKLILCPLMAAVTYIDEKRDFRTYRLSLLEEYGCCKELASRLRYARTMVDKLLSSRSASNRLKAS
NEK6 (human), sequence (Q9HC98 whole entry, looked up): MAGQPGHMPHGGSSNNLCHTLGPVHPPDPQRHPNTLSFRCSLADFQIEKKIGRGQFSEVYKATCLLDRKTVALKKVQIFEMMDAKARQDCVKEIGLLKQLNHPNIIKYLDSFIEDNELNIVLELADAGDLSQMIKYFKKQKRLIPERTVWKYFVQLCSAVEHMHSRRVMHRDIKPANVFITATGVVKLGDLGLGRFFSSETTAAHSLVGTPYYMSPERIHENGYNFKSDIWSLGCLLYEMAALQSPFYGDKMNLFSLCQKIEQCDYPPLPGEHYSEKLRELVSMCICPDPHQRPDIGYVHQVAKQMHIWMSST

COc1cc2ncn(-c3cc(OCc4ccccc4S(C)(=O)=O)c(C#N)s3)c2cc1OC
residual activity ([1]; compound 1.0 µM): 72% | residual activity ([1]; compound 10.0 µM): 98% | residual activity (BTK (human); compound 1.0 µM): 63% | residual activity (BTK (human); compound 10.0 µM): 45% | residual activity (CDK2 CCNA2 (human); compound 1.0 µM): 100% | residual activity (CDK2 CCNA2 (human); compound 10.0 µM): 99% | residual activity (CHEK2 (human); compound 1.0 µM): 19% | residual activity (CHEK2 (human); compound 10.0 µM): 19% | residual activity (CSK (human); compound 1.0 µM): 81% | residual activity (CSK (human); compound 10.0 µM): 74% | residual activity (CSNK1D (human); compound 1.0 µM): 89% | residual activity (CSNK1D (human); compound 10.0 µM): 91% | residual activity (EPHA4 (human); compound 1.0 µM): 57% | residual activity (EPHA4 (human); compound 10.0 µM): 45% | residual activity (EPHB1 (human); compound 1.0 µM): 79% | residual activity (EPHB1 (human); compound 10.0 µM): 95% | residual activity (EPHB4 (human); compound 1.0 µM): 94% | residual activity (EPHB4 (human); compound 10.0 µM): 82% | residual activity (FLT1 (human); compound 1.0 µM): 15% | residual activity (FLT1 (human); compound 10.0 µM): 23% | residual activity (IKBKB (human); compound 1.0 µM): 103% | residual activity (IKBKB (human); compound 10.0 µM): 78% | residual activity (IKBKE (human); compound 1.0 µM): 9% | residual activity (IKBKE (human); compound 10.0 µM): 6% | residual activity (INSRR (human); compound 1.0 µM): 77% | residual activity (INSRR (human); compound 10.0 µM): 66% | residual activity (MAP2K1 (human); compound 1.0 µM): 78% | residual activity (MAP2K1 (human); compound 10.0 µM): 75% | residual activity (MAPK1 (human); compound 1.0 µM): 104% | residual activity (MAPK1 (human); compound 10.0 µM): 88% | residual activity (MAPK14 (human); compound 1.0 µM): 91% | residual activity (MAPK14 (human); compound 10.0 µM): 85% | residual activity (MAPK15 (human); compound 1.0 µM): 65% | residual activity (MAPK15 (human); compound 10.0 µM): 15% | residual activity (MAPK3 (human); compound 1.0 µM): 101% | residual activity (MAPK3 (human); compound 10.0 µM): 77% | residual activity (MAPKAPK3 (human); compound 1.0 µM): 93% | residual activity (MAPKAPK3 (human); compound 10.0 µM): 67% | residual activity (MKNK2 (human); compound 1.0 µM): 47% | residual activity (MKNK2 (human); compound 10.0 µM): 35% | residual activity (NEK2 (human); compound 1.0 µM): 41% | residual activity (NEK2 (human); compound 10.0 µM): 39% | residual activity (NEK6 (human); compound 1.0 µM): 93% | residual activity (NEK6 (human); compound 10.0 µM): 77% | residual activity (PAK7 (human); compound 1.0 µM): 80% | residual activity (PAK7 (human); compound 10.0 µM): 58% | residual activity (PIM2 (human); compound 1.0 µM): 93% | residual activity (PIM2 (human); compound 10.0 µM): 78% | residual activity (PLK1 (human); compound 1.0 µM): 65% | residual activity (PLK1 (human); compound 10.0 µM): 55% | residual activity (PRKAA1 or PRKAA2 (rat); compound 1.0 µM): 10% | residual activity (PRKAA1 or PRKAA2 (rat); compound 10.0 µM): 9% | residual activity (PRKACA (human); compound 1.0 µM): 101% | residual activity (PRKACA (human); compound 10.0 µM): 83% | residual activity (RIPK2 (human); compound 1.0 µM): 14% | residual activity (RIPK2 (human); compound 10.0 µM): 6% | residual activity (RPS6KA1 KD1 KD2 (human); compound 1.0 µM): 50% | residual activity (RPS6KA1 KD1 KD2 (human); compound 10.0 µM): 28% | residual activity (RPS6KA3 KD1 KD2 (human); compound 1.0 µM): 82% | residual activity (RPS6KA3 KD1 KD2 (human); compound 10.0 µM): 57% | residual activity (RPS6KA5 KD1 KD2 (human); compound 1.0 µM): 78% | residual activity (RPS6KA5 KD1 KD2 (human); compound 10.0 µM): 58% | residual activity ([2]; compound 1.0 µM): 87% | residual activity ([2]; compound 10.0 µM): 66% | residual activity (SRC (human); compound 1.0 µM): 57% | residual activity (SRC (human); compound 10.0 µM): 64% | residual activity (SYK (human); compound 1.0 µM): 95% | residual activity (SYK (human); compound 10.0 µM): 87% | residual activity (TTK (human); compound 1.0 µM): 83%

Oc1ccc(/C=C/c2cc(O)cc(O)c2)cc1
residual activity ([1]; compound 1.0 µM): 108% | residual activity ([1]; compound 10.0 µM): 67% | residual activity ([1]; compound 50.0 µM): 76% | residual activity (BTK (human); compound 10.0 µM): 75% | residual activity (CDK2 CCNA2 (human); compound 1.0 µM): 103% | residual activity (CDK2 CCNA2 (human); compound 10.0 µM): 59% | residual activity (CDK2 CCNA2 (human); compound 50.0 µM): 34% | residual activity (CHEK2 (human); compound 1.0 µM): 84% | residual activity (CHEK2 (human); compound 10.0 µM): 79% | residual activity (CHEK2 (human); compound 50.0 µM): 14% | residual activity (CSK (human); compound 1.0 µM): 102% | residual activity (CSK (human); compound 10.0 µM): 87% | residual activity (CSK (human); compound 50.0 µM): 68% | residual activity (CSNK1D (human); compound 1.0 µM): 84% | residual activity (CSNK1D (human); compound 10.0 µM): 94% | residual activity (CSNK1D (human); compound 50.0 µM): 46% | residual activity (EPHA4 (human); compound 10.0 µM): 107% | residual activity (EPHB1 (human); compound 10.0 µM): 97% | residual activity (EPHB4 (human); compound 10.0 µM): 99% | residual activity (FLT1 (human); compound 10.0 µM): 51% | residual activity (IKBKB (human); compound 1.0 µM): 99% | residual activity (IKBKB (human); compound 10.0 µM): 70% | residual activity (IKBKB (human); compound 50.0 µM): 46% | residual activity (IKBKE (human); compound 10.0 µM): 59% | residual activity (INSRR (human); compound 10.0 µM): 62% | residual activity (MAP2K1 (human); compound 1.0 µM): 99% | residual activity (MAP2K1 (human); compound 10.0 µM): 81% | residual activity (MAP2K1 (human); compound 50.0 µM): 75% | residual activity (MAPK1 (human); compound 1.0 µM): 102% | residual activity (MAPK1 (human); compound 10.0 µM): 79% | residual activity (MAPK1 (human); compound 50.0 µM): 100% | residual activity (MAPK14 (human); compound 1.0 µM): 95% | residual activity (MAPK14 (human); compound 10.0 µM): 97% | residual activity (MAPK14 (human); compound 50.0 µM): 75% | residual activity (MAPK15 (human); compound 1.0 µM): 36% | residual activity (MAPK15 (human); compound 10.0 µM): 10% | residual activity (MAPK15 (human); compound 50.0 µM): 12% | residual activity (MAPK3 (human); compound 1.0 µM): 101% | residual activity (MAPK3 (human); compound 10.0 µM): 88% | residual activity (MAPK3 (human); compound 50.0 µM): 92% | residual activity (MAPKAPK3 (human); compound 1.0 µM): 121% | residual activity (MAPKAPK3 (human); compound 10.0 µM): 64% | residual activity (MAPKAPK3 (human); compound 50.0 µM): 97% | residual activity (MKNK2 (human); compound 1.0 µM): 74% | residual activity (MKNK2 (human); compound 10.0 µM): 96% | residual activity (MKNK2 (human); compound 50.0 µM): 34% | residual activity (NEK2 (human); compound 1.0 µM): 96% | residual activity (NEK2 (human); compound 10.0 µM): 91% | residual activity (NEK2 (human); compound 50.0 µM): 83% | residual activity (NEK6 (human); compound 1.0 µM): 104% | residual activity (NEK6 (human); compound 10.0 µM): 96% | residual activity (NEK6 (human); compound 50.0 µM): 87% | residual activity (PAK7 (human); compound 1.0 µM): 102% | residual activity (PAK7 (human); compound 10.0 µM): 83% | residual activity (PAK7 (human); compound 50.0 µM): 75% | residual activity (PIM2 (human); compound 1.0 µM): 78% | residual activity (PIM2 (human); compound 10.0 µM): 37% | residual activity (PIM2 (human); compound 50.0 µM): 27% | residual activity (PLK1 (human); compound 1.0 µM): 90% | residual activity (PLK1 (human); compound 10.0 µM): 87% | residual activity (PLK1 (human); compound 50.0 µM): 78% | residual activity (PRKAA1 or PRKAA2 (rat); compound 1.0 µM): 103% | residual activity (PRKAA1 or PRKAA2 (rat); compound 10.0 µM): 73% | residual activity (PRKAA1 or PRKAA2 (rat); compound 50.0 µM): 16% | residual activity (PRKACA (human); compound 1.0 µM): 106% | residual activity (PRKACA (human); compound 10.0 µM): 101% | residual activity (PRKACA (human); compound 50.0 µM): 91% | residual activity (RIPK2 (human); compound 10.0 µM): 51% | residual activity (RPS6KA1 KD1 KD2 (human); compound 1.0 µM): 77% | residual activity (RPS6KA1 KD1 KD2 (human); compound 10.0 µM): 63% | residual activity (RPS6KA1 KD1 KD2 (human); compound 50.0 µM): 15% | residual activity (RPS6KA3 KD1 KD2 (human); compound 1.0 µM): 77% | residual activity (RPS6KA3 KD1 KD2 (human); compound 10.0 µM): 72% | residual activity (RPS6KA3 KD1 KD2 (human); compound 50.0 µM): 18% | residual activity (RPS6KA5 KD1 KD2 (human); compound 1.0 µM): 80% | residual activity (RPS6KA5 KD1 KD2 (human); compound 10.0 µM): 65% | residual activity (RPS6KA5 KD1 KD2 (human); compound 50.0 µM): 16% | residual activity ([2]; compound 1.0 µM): 93% | residual activity ([2]; compound 10.0 µM): 69% | residual activity ([2]; compound 50.0 µM): 15% | residual activity (SRC (human); compound 1.0 µM): 108% | residual activity (SRC (human); compound 10.0 µM): 81% | residual activity (SRC (human); compound 50.0 µM): 47% | residual activity (SYK (human); compound 10.0 µM): 92% | residual activity (TTK (human); compound 10.0 µM): 83%
